*1 amine or outer side, *2 acyl side, *3 side chain or, on linkers, in order; H or OH if unused. Where a SMILES comes first, the peptide text is derived from it. Bridges are numbered along the chain shown (N, C = ends). [ ]: non-standard residue; d: D form. ξ: configuration not given here. Phe(3,4,5-F3) = N[C@@H](Cc1cc(F)c(F)c(F)c1)C(=O)O; NMePhe(4-F) = CN[C@@H](Cc1ccc(F)cc1)C(=O)O; NMeW = CN[C@@H](Cc1c[nH]c2ccccc12)C(=O)O; Phe(4-F) = N[C@@H](Cc1ccc(F)cc1)C(=O)O; d(cisHyp) = O=C(O)[C@H]1C[C@@H](O)CN1; Bta = N[C@@H](Cc1csc2ccccc12)C(=O)O; Hyp = O=C(O)[C@@H]1C[C@@H](O)CN1; NMeF = CN[C@@H](Cc1ccccc1)C(=O)O; X1 = O=C([C@H]1COCCN1[*:1])[*:2]; dHyp = O=C(O)[C@H]1C[C@H](O)CN1; NMehSer = CN[C@@H](CCO)C(=O)O; NMeNle = CCCC[C@H](NC)C(=O)O; dNle = CCCC[C@@H](N)C(=O)O; dPip = O=C(O)[C@H]1CCCCN1; hSer = N[C@@H](CCO)C(=O)O; NMeA = CN[C@@H](C)C(=O)O; Orn = NCCC[C@H](N)C(=O)O; Dab = NCC[C@H](N)C(=O)O; Abu = CC[C@H](N)C(=O)O; Dap = NC[C@H](N)C(=O)O; ξC = NC(CS)C(=O)O; Sar = CNCC(=O)O
The compounds below were run against T1, Human PD-L1/PD-1 (Homo sapiens, UniProt Q9NZQ7) (assay: HTRF Human PD-L1/PD-1 binding assay (PD-1-Ig/PD-L1-His)). Conditions: PD-L1-His 10 nM, PD-1-Ig 20 nM; class symbol; read-out: HTRF Human PD-L1/PD-1 Binding Assay IC50 Range.
T1 construct: TVMV protease cleavage site (C); made in house; host or cells: HEK293T cells
T1 sequence (Q9NZQ7 with tags, fused parts or gaps): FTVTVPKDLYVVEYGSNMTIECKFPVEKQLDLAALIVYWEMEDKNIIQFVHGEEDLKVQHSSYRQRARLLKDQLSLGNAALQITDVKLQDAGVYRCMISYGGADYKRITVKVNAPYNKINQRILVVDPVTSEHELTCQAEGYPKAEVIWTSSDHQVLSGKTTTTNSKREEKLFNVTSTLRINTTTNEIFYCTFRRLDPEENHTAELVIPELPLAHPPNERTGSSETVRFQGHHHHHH
Summary of the method: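 HTRF competition using HEK293T-expressed human PD-1(25-167)-Ig at 20 nM and PD-L1(18-239)-His at 10 nM, compound incubated first with PD-L1 for 15 min, then with PD-1 for 15 min. Signal read as 665/620 nm ratio 30 min after adding Eu anti-Ig and APC anti-His antibodies.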

SMILES | IC50
CCCC[C@H]1C(=O)N(C)CC(=O)N[C@@H](CC(=O)O)C(=O)N[C@@H]([C@@H](C)O)C(=O)N(C)[C@@H](Cc2ccccc2)C(=O)N[C@@H](Cc2ccc(O)cc2)C(=O)N(C)CC(=O)N[C@@H](Cc2c[nH]c3ccccc23)C(=O)N[C@@H](Cc2ccc(O)cc2)C(=O)N[C@@H](CC(C)C)C(=O)N[C@H](C(=O)NCC(N)=O)CSCC(=O)N[C@@H](Cc2ccccc2)C(=O)N(C)[C@@H](Cc2ccccc2)C(=O)N1C [Example 3225] ({CH2CO}-F[NMeF][NMeNle][Sar]DT[NMeF]Y[Sar]WYLCG-NH2; thioether N-13) | 1 to 9.9 nM
CCCC[C@H]1C(=O)N(C)[C@@H](CCCC)C(=O)N[C@@H](CCCN)C(=O)N[C@H](C(=O)NCC(N)=O)CSCC(=O)N[C@@H](Cc2ccc(OC)cc2)C(=O)N(C)[C@@H](C)C(=O)N[C@@H](CC(=O)O)C(=O)N2CCC[C@H]2C(=O)N[C@@H](CN)C(=O)N[C@@H](CCCCN)C(=O)N2C[C@H](O)C[C@H]2C(=O)N[C@@H](Cc2c[nH]c3ccccc23)C(=O)N[C@@H](CCN)C(=O)N[C@@H](Cc2c[nH]c3ccccc23)C(=O)N1C [Example 7089] ({CH2CO}-Y(Me)[NMeA]DP[Dap]K[Hyp]W[Dab]W[NMeNle][NMeNle][Orn]CG-NH2; thioether N-14) | 1 to 9.9 nM
CCCC[C@H]1C(=O)N[C@@H](CN)C(=O)N[C@H](C(=O)NCC(N)=O)CSCC(=O)N[C@@H](Cc2ccc(O)cc2)C(=O)N(C)[C@@H](C)C(=O)N[C@@H](CC(N)=O)C(=O)N2CCC[C@H]2C(=O)N[C@@H](Cc2c[nH]cn2)C(=O)N[C@@H](CCC(=O)O)C(=O)N2C[C@H](O)C[C@H]2C(=O)N[C@@H](Cc2c[nH]c3ccccc23)C(=O)N[C@@H](CCN)C(=O)N[C@@H](Cc2c[nH]c3ccccc23)C(=O)N(C)[C@@H](Cc2c[nH]c3ccccc23)C(=O)N1C [Example 5160] ({CH2CO}-Y[NMeA]NPHE[Hyp]W[Dab]W[NMeW][NMeNle][Dap]CG-NH2; thioether N-14) | 10 to 99.9 nM
CCCC[C@H]1C(=O)N(C)[C@@H](CCCC)C(=O)N[C@@H](CCCNC(=N)N)C(=O)NC(C(=O)NCC(N)=O)CSCC(=O)N[C@@H](Cc2ccc(O)cc2)C(=O)N(C)[C@@H](C)C(=O)N[C@@H](CC(N)=O)C(=O)N2CCC[C@H]2C(=O)N[C@@H](CC(N)=O)C(=O)N[C@@H](CC(C)C)C(=O)N2CCC[C@H]2C(=O)N[C@@H](Cc2c[nH]c3ccccc23)C(=O)N[C@@H](CCO)C(=O)N[C@@H](Cc2csc3ccccc23)C(=O)N1C (stereo partly drawn) [Example 9129] ({CH2CO}-Y[NMeA]NPNLPW[hSer][Bta][NMeNle][NMeNle]R[ξC]G-NH2; thioether N-14) | 1 to 9.9 nM
CCCC[C@H]1C(=O)N(C)[C@@H](CCCC)C(=O)N[C@@H](C)C(=O)NC(C(=O)NCC(N)=O)CSCC(=O)N[C@@H](Cc2ccc(O)cc2)C(=O)N(C)[C@@H](C)C(=O)N[C@@H](CC(N)=O)C(=O)N2CCC[C@H]2C(=O)N[C@@H](CC(N)=O)C(=O)N[C@@H](CC(C)C)C(=O)N2C[C@H](O)C[C@H]2C(=O)N[C@@H](Cc2c[nH]c3ccccc23)C(=O)N[C@@H](CO)C(=O)N[C@@H](Cc2csc3ccccc23)C(=O)N1C (stereo partly drawn) [Example 9135] ({CH2CO}-Y[NMeA]NPNL[Hyp]WS[Bta][NMeNle][NMeNle]A[ξC]G-NH2; thioether N-14) | 1 to 9.9 nM
CCCC[C@H]1C(=O)N(C)[C@@H](CCCC)C(=O)N[C@@H](CCCN)C(=O)N[C@H](C(=O)NCC(N)=O)CSCC(=O)N[C@@H](Cc2ccc(OC)cc2)C(=O)N(C)[C@@H](C)C(=O)N[C@@H](CC(N)=O)C(=O)N2CCC[C@H]2C(=O)N[C@@H](CN)C(=O)N[C@@H](CCC(=O)O)C(=O)N2C[C@H](O)C[C@H]2C(=O)N[C@@H](Cc2c[nH]c3ccccc23)C(=O)N[C@@H](CC(=O)O)C(=O)N[C@@H](Cc2c[nH]c3ccccc23)C(=O)N1C [Example 7100] ({CH2CO}-Y(Me)[NMeA]NP[Dap]E[Hyp]WDW[NMeNle][NMeNle][Orn]CG-NH2; thioether N-14) | 1 to 9.9 nM

The next lines start with the values.

IC50 | SMILES
1000 to 10000 nM | CCCC[C@H]1NC(=O)[C@H](Cc2c[nH]c3ccccc23)NC(=O)[C@H](CO)NC(=O)[C@H](Cc2c[nH]c3ccccc23)NC(=O)[C@@H]2C[C@@H](O)CN2C(=O)[C@H](CCC(N)=O)NC(=O)[C@H](Cc2cnc[nH]2)NC(=O)[C@@H]2CCCN2C(=O)[C@H](CC(N)=O)NC(=O)[C@H](C)N(C)C(=O)[C@H](Cc2ccc(O)cc2)NC(=O)CSCC(C(=O)NCC(N)=O)NC(=O)[C@H](CCCNC(=N)N)NC(=O)[C@H](CCCC)N(C)C1=O (stereo partly drawn) [Example 10126] ({CH2CO}-Y[NMeA]NPHQ[Hyp]WSW[dNle][NMeNle]R[ξC]G-NH2; thioether N-14)
1 to 9.9 nM | CCCC[C@H]1C(=O)N2CCC[C@@H]2C(=O)N[C@@H](CC(=O)O)C(=O)N[C@@H](C(C)C)C(=O)N(C)[C@@H](Cc2ccccc2)C(=O)N[C@@H](Cc2ccc(O)cc2)C(=O)N2C[C@@H](O)C[C@@H]2C(=O)N[C@@H](Cc2c[nH]c3ccccc23)C(=O)N[C@@H](Cc2ccc(O)cc2)C(=O)N[C@@H](CCCN)C(=O)N[C@H](C(=O)NCC(N)=O)CSCC(=O)N[C@@H](Cc2cc(F)c(F)c(F)c2)C(=O)N(C)[C@@H](Cc2ccccc2)C(=O)N1C [Example 9288] ({CH2CO}-[Phe(3,4,5-F3)][NMeF][NMeNle][dP]DV[NMeF]Y[dHyp]WY[Orn]CG-NH2; thioether N-13)
1 to 9.9 nM | CCCC[C@H]1C(=O)N2C[C@@H](O)C[C@@H]2C(=O)N[C@@H](CC(=O)O)C(=O)N[C@@H](C(C)C)C(=O)N(C)[C@@H](Cc2ccccc2)C(=O)N[C@@H](CCC(=O)O)C(=O)N2C[C@@H](O)C[C@@H]2C(=O)N[C@@H](Cc2c[nH]c3ccccc23)C(=O)N[C@@H](Cc2ccc(O)cc2)C(=O)N[C@@H](CC(C)C)C(=O)N[C@H](C(=O)NCC(N)=O)CSCC(=O)N[C@@H](Cc2cc(F)c(F)c(F)c2)C(=O)N(C)[C@@H](Cc2ccccc2)C(=O)N1C [Example 9275] ({CH2CO}-[Phe(3,4,5-F3)][NMeF][NMeNle][dHyp]DV[NMeF]E[dHyp]WYLCG-NH2; thioether N-13)
1 to 9.9 nM | CCCC[C@H]1C(=O)N[C@@H](CN)C(=O)N[C@H](C(=O)NCC(N)=O)CSCC(=O)N[C@@H](Cc2ccc(O)cc2)C(=O)N(C)[C@@H](C)C(=O)N[C@@H](CC(=O)O)C(=O)N2CCC[C@H]2C(=O)N[C@@H](Cc2c[nH]cn2)C(=O)N[C@@H](CCC(N)=O)C(=O)N2C[C@H](O)C[C@H]2C(=O)N[C@@H](Cc2c[nH]c3ccccc23)C(=O)N[C@@H](CO)C(=O)N[C@@H](Cc2c[nH]c3ccccc23)C(=O)N(C)[C@@H](CCOC)C(=O)N1C [Example 10139] ({CH2CO}-Y[NMeA]DPHQ[Hyp]WSW[NMehSer](Me)[NMeNle][Dap]CG-NH2; thioether N-14)
10 to 99.9 nM | CCCC[C@H]1C(=O)N(C)CC(=O)N[C@@H](CC(=O)O)C(=O)N[C@@H](C)C(=O)N(C)[C@@H](Cc2ccccc2)C(=O)N[C@@H](Cc2ccc(O)cc2)C(=O)N2CCC[C@@H]2C(=O)N[C@@H](Cc2c[nH]c3ccccc23)C(=O)N[C@@H](Cc2ccc(O)cc2)C(=O)N[C@@H](CC(C)C)C(=O)N[C@H](C(=O)NCC(N)=O)CSCC(=O)N[C@@H](Cc2ccccc2)C(=O)N(C)[C@@H](Cc2ccccc2)C(=O)N1C [Example 10080] ({CH2CO}-F[NMeF][NMeNle][Sar]DA[NMeF]Y[dP]WYLCG-NH2; thioether N-13)
10 to 99.9 nM | CCCC[C@H]1C(=O)N2CCC[C@@H]2C(=O)N[C@@H](CO)C(=O)N[C@@H](CC)C(=O)N(C)[C@@H](Cc2ccccc2)C(=O)N[C@@H](Cc2ccc(O)cc2)C(=O)N(C)CC(=O)N[C@@H](Cc2c[nH]c3ccccc23)C(=O)N[C@@H](Cc2ccc(O)cc2)C(=O)N[C@@H](CC(C)C)C(=O)N[C@H](C(=O)NCC(N)=O)CSCC(=O)N[C@@H](Cc2ccccc2)C(=O)N(C)[C@@H](Cc2ccccc2)C(=O)N1C [Example 10058] ({CH2CO}-F[NMeF][NMeNle][dP]S[Abu][NMeF]Y[Sar]WYLCG-NH2; thioether N-13)
1 to 9.9 nM | CCCC[C@H]1C(=O)N2CCC[C@@H]2C(=O)N[C@@H](CC(=O)O)C(=O)N[C@@H](C(C)C)C(=O)N(C)[C@@H](Cc2ccccc2)C(=O)N[C@@H](CCC(=O)O)C(=O)N2CCOC[C@@H]2C(=O)N[C@@H](Cc2c[nH]c3ccccc23)C(=O)N[C@@H](Cc2ccc(O)cc2)C(=O)N[C@@H](CCC(N)=O)C(=O)N[C@H](C(=O)NCC(N)=O)CSCC(=O)N[C@@H](Cc2cc(F)c(F)c(F)c2)C(=O)N(C)[C@@H](Cc2ccc(F)cc2)C(=O)N1C [Example 10607] ({CH2CO}-[Phe(3,4,5-F3)][NMePhe(4-F)][NMeNle][dP]DV[NMeF]E[X1]WYQCG-NH2; thioether N-13)
1 to 9.9 nM | CCCC[C@H]1C(=O)N2CCC[C@@H]2C(=O)N[C@@H](CC(=O)O)C(=O)N[C@@H](C(C)C)C(=O)N(C)[C@@H](Cc2ccccc2)C(=O)N[C@@H](CCC(=O)O)C(=O)N2C[C@H](O)C[C@@H]2C(=O)N[C@@H](Cc2c[nH]c3ccccc23)C(=O)N[C@@H](Cc2ccc(O)cc2)C(=O)N[C@@H](CCOC)C(=O)N[C@H](C(=O)NCC(N)=O)CSCC(=O)N[C@@H](Cc2cc(F)c(F)c(F)c2)C(=O)N(C)[C@@H](Cc2ccccc2)C(=O)N1C [Example 10188] ({CH2CO}-[Phe(3,4,5-F3)][NMeF][NMeNle][dP]DV[NMeF]E[d(cisHyp)]WY[hSer](Me)CG-NH2; thioether N-13)

Same assay, conditions: PD-L1-His 10 nM, PD-1-Ig 20 nM; read-out: HTRF Human PD-L1/PD-1 Binding Assay IC50

IC50 | SMILES
144 nM | CCCC[C@H]1C(=O)N2CCC[C@@H]2C(=O)N[C@@H](CC(=O)O)C(=O)N[C@@H](C(C)C)C(=O)N(C)[C@@H](CCOC)C(=O)N[C@@H](Cc2ccc(O)cc2)C(=O)N2CCCC[C@@H]2C(=O)N[C@@H](Cc2c[nH]c3ccccc23)C(=O)N[C@@H](Cc2ccc(O)cc2)C(=O)N[C@@H](CCCN)C(=O)N[C@H](C(=O)NCC(N)=O)CSCC(=O)N[C@@H](Cc2ccc(F)cc2)C(=O)N(C)[C@@H](Cc2ccccc2)C(=O)N1C [Example 9222] ({CH2CO}-[Phe(4-F)][NMeF][NMeNle][dP]DV[NMehSer](Me)Y[dPip]WY[Orn]CG-NH2; thioether N-13)
